Results published in patent US20250009743A1, “METHODS OF TREATING CANCERS USING STING AGONISTS” (Dana-Farber Cancer Institute, Inc., priority 2021, published 2025).

Experiments:
[1] = test system: BP tumor cells; assay: DNA damage in BP tumor cells (cytosolic dsDNA staining, γ-H2AX flow cytometry); format: cell-based, mouse
Procedure: (§1) For flow cytometry analyses of tumor and TDLN samples, single-cell suspensions were obtained as described above (Tissue Digestion). Cells were stained in cold FACS buffer (PBS containing 0.2% BSA and 5 mM EDTA) with LIVE/DEAD Fixable Aqua Dead Cell Stain (Thermo Fisher) for 30 min on ice, followed by blocking with anti-CD16/32 (BioLegend) for 20 min on ice. Cells were then incubated in FACS buffer for 30 min on ice with antibodies specific to CD45 (clone 30-F11, BioLegend), TCR β chain (clone H57-597, BioLegend), CD38 (clone 145-2C11, BioLegend), CD4 (clone RM4-5, BioLegend), CD8a (clone 53-6.7, BioLegend), PD-1 (clone 29F.1A12, BioLegend), CD44 (clone IM7, BioLegend), CD62L (clone MEL-14, BioLegend), IFN-γ (clone XMG1.2, BioLegend), TNF-α (clone MP6-XT22, BioLegend), Granzyme B (clone NGZB, eBioscience), CD11c (clone N418, BioLegend), I-A/I-E (clone M5/114.15.2, BioLegend), CD80 (clone 16-10A1, BioLegend), CD86 (clone GL-1, BioLegend), CD103 (clone 2E7, BioLegend), CD11b (M1/70, BioLegend), F4/80 (clone BM8, BioLegend), phospho-TBK1 (Ser172) (clone D52C2, Cell Signaling Tech.) or phospho-IRF-3 (Ser396) (clone D601M, Cell Signaling Tech.). For intracellular staining, Foxp3/Transcription Factor Staining Buffer Set (eBioscience, #00-5523-00) was used for fixation and permeabilization. For cytokine analysis, cells were stimulated with Leukocyte Activation Cocktail with protein transport inhibitor Brefeldin A (BD Biosciences, #550583) at 37° C. for 4 hours prior to the staining. Analysis of ϵ-HA2X (Ser139) was performed according to manufacturer's instructions. Briefly, ice-cold 70% ethanol (Decon) was added dropwise to the cell pellet while vortexing. Cells were then incubated at −20° C. for 1 hour and washed three times with cold staining buffer. […] All data were analyzed using FlowJo software.
BRCA1-deficient tumor cells were cultured on glass coverslips in 6-well plates. […] Fluorescence intensity of cytosolic dsDNA were analyzed using ImageJ/Fiji software as described in Pantelidou C, et al. Cancer Discov 2019; 9 (6): 722-37.

[2] = test system: BP tumors; assay: Flow cytometry of intratumoral immune cells of BP tumors; format: in vivo, mouse
Procedure: To obtain single-cell suspensions, tumors were excised, minced and dissociated in collagenase/hyaluronidase buffer [DMEM with 5% FBS, 10 mM HEPES (Gibco), 100 μg/mL penicillin-streptomycin, 20 μg/mL DNase I (StemCell) and 1× collagenase/hyaluronidase (StemCell)] for 45 min at 37° C. with agitation, followed by treatment with ammonium-chloride-potassium (ACK) buffer (Lonza) for red blood cell (RBC) lysis, and strained through a 70 μm strainer to remove undigested tumor tissues. Spleens and tumor-draining lymph nodes (TDLNs) were mechanically dissociated by passing the tissues through a 70 μm strainer using the plunger of a 5 ml syringe, and RBCs were lysed as described above.
as §1, with “buffer. For the staining, 5 μL p-HA2X antibody (clone 2F3, BioLegend) was added to approximately 1×10^6 cells in 100 μL staining buffer and incubated at 4° C. for 30 min. For Annexin V and 7-AAD staining, cells were detached with accutase (Sigma, #A6964).” for “buffer.”

[3] = test system: mouse bone marrow-derived macrophages (BMDMs); assay: Polarization of mouse BMDMs / tumor cell-educated macrophages (flow cytometry, RNA-seq, morphology); format: cell-based
Procedure: Mouse macrophages and dendritic cells (DCs) were derived from the bone marrow (BM) of FVB/NJ mice by modifying protocols described in (Weischenfeldt J, Porse B. CSH Protoc 2008; Guo X, et al. J Immunol Methods 2016; 432:24-9). For generation of BM-derived macrophages (BMDMs), BM cells were seeded on ultra-low attachment plates (Corning) or petri dishes (Falcon) and cultured in DMEM supplemented with 10 ng/ml M-CSF (BioLegend, #576404), 10% FBS and 100 μg/mL penicillin-streptomycin. Fresh DMEM with 10 ng/ml M-CSF was added after 3 days, and cells were incubated for another 4 days before harvesting adherent cells (BMDMs). For DC differentiation, BM cells were seeded on tissue culture dishes (Corning) and cultured in RPMI 1640 supplemented with 20 ng/mL GM-CSF (Stem Cell Technologies, #78017), 10% FBS and 100 μg/mL penicillin-streptomycin. Fresh RPMI 1640 with 20 ng/mL GM13 CSF was added after 3 days, and non-adherent cells (DCs) were harvested after another 4 days. For preparation of tumor cell-conditioned media (CM), tumor cells were grown to 60% of confluence, washed twice with PBS, and then incubated with fresh DMEM for two days. CM were then harvested and centrifuged to collect the supernatant.
For flow cytometry analyses of tumor and TDLN samples, single-cell suspensions were obtained as described above (Tissue Digestion). Cells were stained in cold FACS buffer (PBS containing 0.2% BSA and 5 mM EDTA) with LIVE/DEAD Fixable Aqua Dead Cell Stain (Thermo Fisher) for 30 min on ice, followed by blocking with anti-CD16/32 (BioLegend) for 20 min on ice. Cells were then incubated in FACS buffer for 30 min on ice with antibodies specific to CD45 (clone 30-F11, BioLegend), TCR β chain (clone H57-597, BioLegend), CD38 (clone 145-2C11, BioLegend), CD4 (clone RM4-5, BioLegend), CD8a (clone 53-6.7, BioLegend), PD-1 (clone 29F.1A12, BioLegend), CD44 (clone IM7, BioLegend), CD62L (clone MEL-14, BioLegend), IFN-γ (clone XMG1.2, BioLegend), TNF-α (clone MP6-XT22, BioLegend), Granzyme B (clone NGZB, eBioscience), CD11c (clone N418, BioLegend), I-A/I-E (clone M5/114.15.2, BioLegend), CD80 (clone 16-10A1, BioLegend), CD86 (clone GL-1, BioLegend), CD103 (clone 2E7, BioLegend), CD11b (M1/70, BioLegend), F4/80 (clone BM8, BioLegend), phospho-TBK1 (Ser172) (clone D52C2, Cell Signaling Tech.) or phospho-IRF-3 (Ser396) (clone D601M, Cell Signaling Tech.). For intracellular staining, Foxp3/Transcription Factor Staining Buffer Set (eBioscience, #00-5523-00) was used for fixation and permeabilization. For cytokine analysis, cells were stimulated with Leukocyte Activation Cocktail with protein transport inhibitor Brefeldin A (BD Biosciences, #550583) at 37° C. for 4 hours prior to the staining. Analysis of ϵ-HA2X (Ser139) was performed according to manufacturer's instructions. Briefly, ice-cold 70% ethanol (Decon) was added dropwise to the cell pellet while vortexing. Cells were then incubated at −20° C. for 1 hour and washed three times with cold staining buffer. For the staining, 5 μL p-HA2X antibody (clone 2F3, BioLegend) was added to approximately 1×10^6 cells in 100 μL staining buffer and incubated at 4° C. for 30 min. For Annexin V and 7-AAD staining, cells were detached with accutase (Sigma, #A6964). The detached cells (from culture medium and accutase treatment) were washed twice with cold PBS, and then incubated with 5 μL FITC Annexin V (BioLegend, #640906) and 10 μL 7-AAD (BioLegend, #420404) in 100 μL Annexin V binding buffer (BioLegend, #422201) at room temperature for 15 min. Flow cytometry was performed on an LSR Fortessa HTS analyzer (BD Biosciences). All data were analyzed using FlowJo software.
For in vitro co-culture of tumor cells with macrophages, 2×10^5 tumor cells per well were co-cultured with macrophages at a ratio of 1:1 (BP cells: mouse BMDMs) or 1:1.5 (MDA-MB-436 cells: THP-1 macrophages) in 6-well plates with indicated drug treatments or DMSO vehicle control for two days. […]

[4] = BMDMs with BP-CM or BP/OL-CM, DMXAA 0.05 mg/mL, 24 hours, FIG. 7A

| Structure (SMILES) | BP cells' DNA damage (gH2AX) in response to olaparib ([1]; BP cells treated with CM of DMXAA-pre-treated TEMs, FIG. 7I) | production of anti-tumor cytokines (IFNg, Granzyme B, TNFa) in CD8+ and CD4+ T cells ([2]; after 21 days of treatments, DMXAA intratumoral, FIG. 9B-9C) | CD86 expression of STING−/− TEMs ([3]; BMDMs from STING knockout mice, DMXAA 2 days, FIG. 7F) | macrophage morphology ([3]; BMDMs incubated with BP-CM, DMXAA 0.05 mg/mL, 24 hours, FIG. 8B) | expression of genes of anti-tumorigenic M1 signature [3, 4] | expression of pro-tumorigenic M2 genes [3, 4] | M1-like to M2-like ratio of TEMs ([3]; BP TEMs, DMXAA 0.05 mg/mL, two days, FIG. 7C) | TEM STING pathway activation (p-TBK1+p-IRF3+) ([3]; BP TEMs, DMXAA 24 hours, FIG. 7D) | cytosolic dsDNA ([1]; 5 μM olaparib, two days, FIG. 5B) | γ-H2AX ([1]; olaparib, FIG. 5C) | population of tumor-associated macrophages (TAMs) ([2]; 21 days of treatment) | CD8+ T cells and effector CD8+ T cells in tumors ([2]; after seven days of treatment) | proportion of PD-1+CD8+ T cells ([2]; after seven days of treatment) | gene expression of BMDMs (RNA-seq) ([3]; olaparib 5 μM, 24 hours, FIG. 3C) | macrophage polarization (M1-like / M2-like) ([3]; olaparib alone, two days, FIG. 3B) |
| --- | --- | --- | --- | --- | --- | --- | --- | --- | --- | --- | --- | --- | --- | --- | --- |
| Cc1ccc2c(=O)c3cccc(CC(=O)O)c3oc2c1C [DMXAA, 5,6-dimethyl-xanthenone-4-acetic acid] | restored | strongly up-regulated | failed to increase | changed these cells to a “fried egg” shape | strongly stimulated | suppressed | reversed TEMs to M1-like macrophages | significantly increased |  |  |  |  |  |  |  |
| O=C(c1cc(Cc2n[nH]c(=O)c3ccccc23)ccc1F)N1CCN(C(=O)C2CC2)CC1 [olaparib] |  |  |  |  |  |  |  |  | induced accumulation of cytosolic dsDNAs | two-fold increase | not significantly affected | not significantly changed | increased | no significant direct effects | little effect |
